Assay results published in patent US10611750B2, “Tetrahydroquinoline compositions as bet bromodomain inhibitors” (FORMA Therapeutics, Inc., priority 2013, dated 2020).
pIC50: −log10 of the molar value.

Columns and labels:
[1] = tested on: acute myelocytic leukemia (AML) cell line MV4-11; experiment: Oncology cell growth assay (3-day proliferation, CellTiter-Glo); format: cell-based; details: Homo sapiens, MV4-11, 72 h, MV4-11 cells, 3000 cells/well, compounds listed under IC50 range headings, read-out: MV411 IC50 (gIC50, inhibition of proliferation)
How it was run: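 A 3-day proliferation test used MV4-11 cells seeded at 3000 per well with eight compound concentrations (10 μM top, 3-fold dilution) at 37° C in 5% CO2. CellTiter-Glo luminescence defined viable cell signal. A four-parameter logistic curve against DMSO and background wells gave the gIC50.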

[2] = biological target: T1, BRD4 Bromodomain 2 (BRD4 BD2) (Homo sapiens, UniProt O60885); experiment: AlphaScreen binding assay, BRD4 BD2; details: His-tagged BRD4 BD2 100 nM, biotinylated H4 (1-21) K5/8/12/16 tetra-acetylated peptide 100 nM, compounds listed under IC50 range headings
T1 construct: 333-460 were cloned, expressed, and purified to homogeneity
How it was run: (§1)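 Compound dilution series were mixed with His-tagged BRD4 bromodomain and biotinylated tetra-acetylated H4 (1-21) peptide at pH 7.3 (BD1 and peptide at 50 nM, BD2 and peptide at 100 nM). Donor and acceptor beads were then added, and plates were equilibrated at least 1 h before reading. IC50 values were fitted with a four-parameter logistic model.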

[3] = biological target: T2, BRD4 Bromodomain 1 (BRD4 BD1) (Homo sapiens, UniProt O60885); experiment: AlphaScreen binding assay, BRD4 BD1; details: His-tagged BRD4 BD1 50 nM, biotinylated H4 (1-21) K5/8/12/16 tetra-acetylated peptide 50 nM, compounds listed under IC50 range headings
T2 construct: 44-168 and BRD4 BD2
How it was run: as §1

| pIC50 [1] | pIC50 [2] | pIC50 [3] | SMILES |
| --- | --- | --- | --- |
| 6.00 to 6.30 | 6.30 to 7.30 | 6.00 to 7.00 | COC(=O)N1c2ccc(-c3cnn(C4CC4)c3)c(OCC(=O)N3CCC3)c2CC[C@@H]1C [I-23, (S)-methyl 5-(2-(azetidin-1-yl)-2-oxoethoxy)-6-(1-cyclopropyl-1H-pyrazol-4-yl)-2-methyl-3,4-dihydroquinoline-1(2H)-carboxylate] |
| < 6.00 | > 7.30 | 6.00 to 7.00 | COC(=O)N1c2ccc(-c3cnn(C4CC4)c3)c(OCC(=O)N3CCCCC3)c2CC[C@@H]1C [I-24, (S)-methyl 6-(1-cyclopropyl-1H-pyrazol-4-yl)-2-methyl-5-(2-oxo-2-(piperidin-1-yl)ethoxy)-3,4-dihydroquinoline-1(2H)-carboxylate] |
| < 6.00 | 6.30 to 7.30 | 5.00 to 6.00 | COC(=O)N1c2ccc(-c3cnn(C4CC4)c3)c(OCS(=O)(=O)N(C)C)c2CC[C@@H]1C [I-29, (S)-methyl 6-(1-cyclopropyl-1H-pyrazol-4-yl)-5-((N,N-dimethylsulfamoyl)methoxy)-2-methyl-3,4-dihydroquinoline-1(2H)-carboxylate] |
| > 6.30 | 6.30 to 7.30 | 5.00 to 6.00 | COC(=O)N1c2ccc(-c3cnn(C4CC4)c3)c(OCCC3COC3)c2CC[C@@H]1C [I-30, (S)-methyl 6-(1-cyclopropyl-1H-pyrazol-4-yl)-2-methyl-5-(2-(oxetan-3-yl)ethoxy)-3,4-dihydroquinoline-1(2H)-carboxylate] |
| 6.00 to 6.30 | > 7.30 | 6.00 to 7.00 | COC(=O)N1c2ccc(-c3cnn(C4CC4)c3)c(OCC3CC3(F)F)c2CC[C@@H]1C (stereo partly drawn) [I-31, (2S)-methyl 6-(1-cyclopropyl-1H-pyrazol-4-yl)-5-((2,2-difluorocyclopropyl)methoxy)-2-methyl-3,4-dihydroquinoline-1(2H)-carboxylate] |
| < 6.00 | 6.30 to 7.30 | ≤ 5.00 | CCCOc1c(C2=CCN(C(=O)OC(C)(C)C)CC2)ccc2c1CC[C@H](C)N2C(C)=O [I-34, tert-butyl (S)-4-(1-acetyl-2-methyl-5-propoxy-1,2,3,4-tetrahydroquinolin-6-yl)-3,6-dihydropyridine-1(2H)-carboxylate] |
| 6.00 to 6.30 | 6.30 to 7.30 | 5.00 to 6.00 | CC(=O)N1c2ccc(-c3cnn(C4CC4)c3)c(OCC(F)(F)F)c2CC[C@@H]1C [I-35, (S)-1-(6-(1-cyclopropyl-1H-pyrazol-4-yl)-2-methyl-5-(2,2,2-trifluoroethoxy)-3,4-dihydroquinolin-1(2H)-yl)ethanone] |
| 6.00 to 6.30 | > 7.30 | 5.00 to 6.00 | CC(=O)N1c2ccc(-c3cnn(C4CC4)c3)c(OCC(F)F)c2CC[C@@H]1C [I-36, (S)-1-(6-(1-cyclopropyl-1H-pyrazol-4-yl)-5-(2,2-difluoroethoxy)-2-methyl-3,4-dihydroquinolin-1(2H)-yl)ethanone] |
| 6.00 to 6.30 | > 7.30 | 6.00 to 7.00 | CC(=O)N1c2ccc(-c3cnn(C4CC4)c3)c(OCC(C)(C)CO)c2CC[C@@H]1C [I-39, (S)-1-(6-(1-cyclopropyl-1H-pyrazol-4-yl)-5-(3-hydroxy-2,2-dimethylpropoxy)-2-methyl-3,4-dihydroquinolin-1(2H)-yl)ethanone] |
| < 6.00 | 6.30 to 7.30 | 6.00 to 7.00 | CC(=O)N1c2ccc(-c3cnn(C4CC4)c3)c(OCCN3CCCC3=O)c2CC[C@@H]1C [I-42, (S)-1-(2-(1-acetyl-6-(1-cyclopropyl-1H-pyrazol-4-yl)-2-methyl-1,2,3,4-tetrahydroquinolin-5-yloxy)ethyl)pyrrolidin-2-one] |
| < 6.00 | 6.30 to 7.30 | 6.00 to 7.00 | CC(=O)N1c2ccc(-c3cnn(C4CC4)c3)c(OCC(=O)N3CCOCC3)c2CC[C@@H]1C [I-43, (S)-2-(1-acetyl-6-(1-cyclopropyl-1H-pyrazol-4-yl)-2-methyl-1,2,3,4-tetrahydroquinolin-5-yloxy)-1-morpholinoethanone] |
| 6.00 to 6.30 | > 7.30 | 6.00 to 7.00 | CC(=O)N1c2ccc(-c3cnn(C4CC4)c3)c(OCCN3CCCS3(=O)=O)c2CC[C@@H]1C [I-44, 2-(2-{[(2S)-1-acetyl-6-(1-cyclopropyl-1H-pyrazol-4-yl)-2-methyl-1,2,3,4-tetrahydroquinolin-5-yl]oxy}ethyl)-1λ^6,2-thiazolidine-1,1-dione] |
| 6.00 to 6.30 | 6.30 to 7.30 | 5.00 to 6.00 | CC(=O)N1c2ccc(-c3cnn(C4CC4)c3)c(OCS(=O)(=O)N(C)C)c2CC[C@@H]1C [I-46, (S)-(1-acetyl-6-(1-cyclopropyl-1H-pyrazol-4-yl)-2-methyl-1,2,3,4-tetrahydroquinolin-5-yloxy)-N,N-dimethylmethanesulfonamide] |
| > 6.30 | > 7.30 | > 7.00 | CC(=O)N1c2ccc(-c3cnn(C4CC4)c3)c(OCC3CC3(F)F)c2CC[C@@H]1C (stereo partly drawn) [I-48, 1-((S)-6-(1-cyclopropyl-1H-pyrazol-4-yl)-5-((2,2-difluorocyclopropyl)methoxy)-2-methyl-3,4-dihydroquinolin-1(2H)-yl)ethanone] |
| < 6.00 | > 7.30 | 6.00 to 7.00 | CC(=O)N1c2ccc(-c3cnn(C4CC4)c3)c(OCC3(CO)COC3)c2CC[C@@H]1C [I-49, (S)-1-(6-(1-cyclopropyl-1H-pyrazol-4-yl)-5-((3-(hydroxymethyl)oxetan-3-yl)methoxy)-2-methyl-3,4-dihydroquinolin-1(2H)-yl)ethanone] |
| 6.00 to 6.30 | > 7.30 | 6.00 to 7.00 | CC(=O)N1c2ccc(-c3cnn(C4CC4)c3)c(OCC3(F)COC3)c2CC[C@@H]1C [I-50, (S)-1-(6-(1-cyclopropyl-1H-pyrazol-4-yl)-5-((3-fluorooxetan-3-yl)methoxy)-2-methyl-3,4-dihydroquinolin-1 (2H)-yl)ethanone] |
| < 6.00 | ≤ 6.30 | ≤ 5.00 | CC(=O)N1c2ccc(-c3cnn(C4CC4)c3)c(OC3CNC3)c2CC[C@@H]1C [I-60, (S)-1-(5-(azetidin-3-yloxy)-6-(1-cyclopropyl-1H-pyrazol-4-yl)-2-methyl-3,4-dihydroquinolin-1(2H)-yl)ethanone] |
| > 6.30 | > 7.30 | 6.00 to 7.00 | CC(=O)N1c2ccc(-c3cnn(C4CC4)c3)c(OCC(C)(C)F)c2CC[C@@H]1C [I-67, (S)-1-(6-(1-cyclopropyl-1H-pyrazol-4-yl)-5-(2-fluoro-2-methylpropoxy)-2-methyl-3,4-dihydroquinolin-1 (2H)-yl)ethanone] |
| > 6.30 | > 7.30 | 6.00 to 7.00 | CC(=O)N1c2ccc(-c3cnn(C4CC4)c3)c(Oc3ncc4ccccc4n3)c2CC[C@@H]1C [I-77, (S)-1-(6-(1-cyclopropyl-1H-pyrazol-4-yl)-2-methyl-5-(quinazolin-2-yloxy)-3,4-dihydroquinolin-1(2H)-yl)ethanone] |
| > 6.30 | 6.30 to 7.30 | 6.00 to 7.00 | CC(=O)N1c2ccc(-c3cnn(C4CC4)c3)c(Oc3nc4ccccc4o3)c2CC[C@@H]1C [I-78, (S)-1-(5-(benzo[d]oxazol-2-yloxy)-6-(1-cyclopropyl-1H-pyrazol-4-yl)-2-methyl-3,4-dihydroquinolin-1(2H)-yl)ethanone] |
| > 6.30 | > 7.30 | 6.00 to 7.00 | CC(=O)N1c2ccc(-c3cnn(CCO)c3)c(Oc3ncccn3)c2CC[C@@H]1C [I-80, (S)-1-(6-(1-(2-hydroxyethyl)-1H-pyrazol-4-yl)-2-methyl-5-(pyrimidin-2-yloxy)-3,4-dihydroquinolin-1 (2H)-yl)ethanone] |

| SMILES | pIC50 [1] | pIC50 [2] | pIC50 [3] |
| --- | --- | --- | --- |
| CC(=O)N1c2ccc(-c3cnn(C4CC4)c3)c(OC3CC(F)(F)C3)c2CC[C@@H]1C [I-51, (S)-1-(6-(1-cyclopropyl-1H-pyrazol-4-yl)-5-(3,3-difluorocyclobutoxy)-2-methyl-3,4-dihydroquinolin-1(2H)-yl)ethanone] | > 6.30 | > 7.30 | 6.00 to 7.00 |
| C[C@H]1CCc2c(ccc(-c3cn(C)nn3)c2OC2CCC2)N1C(=O)C1CC1 [I-53, (S)-(5-cyclobutoxy-2-methyl-6-(1-methyl-1H-1,2,3-triazol-4-yl)-3,4-dihydroquinolin-1 (2H)-yl)(cyclopropyl)methanone] | > 6.30 | > 7.30 | 6.00 to 7.00 |
| COC(=O)N1c2ccc(-c3cnn(C4CS(=O)(=O)C4)c3)c(OC3CCC3)c2CC[C@@H]1C [I-61, Methyl (S)-5-cyclobutoxy-6-(1-(1,1-dioxidothietan-3-yl)-1H-pyrazol-4-yl)-2-methyl-3,4-dihydroquinoline-1(2H)-carboxylate] | > 6.30 | 6.30 to 7.30 | 6.00 to 7.00 |
| COC(=O)N1c2ccc(-c3cnn(C4CCCS(=O)(=O)C4)c3)c(OC3CCC3)c2CC[C@@H]1C (stereo partly drawn) [I-62, Methyl (2S)-5-cyclobutoxy-6-(1-(1,1-dioxidotetrahydro-2H-thiopyran-3-yl)-1H-pyrazol-4-yl)-2-methyl-3,4-dihydroquinoline-1(2H)-carboxylate] | > 6.30 | > 7.30 | 6.00 to 7.00 |
| COC(=O)N1c2ccc(-c3cnn(C4CCOCC4)c3)c(OC3CCC3)c2CC[C@@H]1C [I-68, (S)-methyl 5-cyclobutoxy-2-methyl-6-(1-(tetrahydro-2H-pyran-4-yl)-1H-pyrazol-4-yl)-3,4-dihydroquinoline-1(2H)-carboxylate] | > 6.30 | > 7.30 | 6.00 to 7.00 |
